# From patent US12157730B2, “Heteroaryl derivative, method for producing same, and pharmaceutical composition comprising same as effective component” (VORONOI INC., priority 2019, dated 2024)
# Target: T1, Ba/F3 cell EGFR Exon20 ins NPH (Homo sapiens, UniProt P00533, INS773NPH)
# T1 construct: expressed in transfected cells; host or cells: Ba/F3
# Experiment: Ba/F3 cell proliferation suppression, EGFR Exon20 ins NPH
# Assay type: cell-based
# Settings: GI50 class; Ba/F3 cell line with NPH inserted at Exon20 of EGFR; 72 hours
# Outline: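 Growth suppression determined as GI50 following 72 h exposure across 12 concentrations up to 50 um, with viability by luminescent ATP assay (CellTiter-Glo).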
row,Ba/F3 (NPH) Activity,SMILES
1,B (50 nM ≤ GI50 < 500 nM),"C=CC(=O)Nc1cc(Nc2cc(N3OCC[C@@H]3c3ccc4ccccc4c3)ncn2)c(OC)cc1N1CCC(N2CCN(C3COC3)CC2)CC1 [Example 200, N-(4-methoxy-5-((6-((R)-3-(naphthalene-2-yl)isoxazolidine-2-yl)pyrimidine-4-yl)amino)-2-(4-(4-(oxetane-3-yl)piperazine-1-yl)piperidine-1-yl)phenyl)acrylamide]"
2,C (500 nM ≤ GI50 < 5000 nM),"C=CC(=O)Nc1cc(Nc2cc(N3OCC[C@H]3c3c(F)cccc3F)ncn2)c(OC)cc1N1CCC(N2CCN(C)[C@@H](C)C2)CC1 [compound 313, N-(5-((6-((S)-3-(2,6-difluorophenyl)isoxazolidine-2-yl)pyrimidine-4-yl)amino)-2-(4-((S)-3,4-dimethylpiperazine-1-yl)piperidine-1-yl)-4-methoxyphenyl) acrylamide]"
3,A (GI50 < 50 nM),"C#Cc1cccc([C@H]2CCON2c2cc(Nc3cc(NC(=O)C=C)c(N4CCC(N5C[C@H]6C[C@@H]5CO6)CC4)cc3OC)ncn2)c1 [compound 619, N-(2-(4-((1R,4R)-2-oxa-5-azabicyclo [2.2.1]heptane-5-yl)piperidine-1-yl)-5-((6-((R)-3-(3-ethynylphenyl)isoxazolidine-2-yl)pyrimidine-4-yl)amino)-4-methoxyphenyl) acrylamide]"
4,A (GI50 < 50 nM),"C=CC(=O)Nc1cc(Nc2cc(N3OCC[C@@H]3Cc3ccccc3)ncn2)c(OC)cc1N1CCN(CCN(C)C)CC1 [compound 961, N-(5-((6-((S)-3-benzylisoxazolidine-2-yl)pyrimidine-4-yl)amino)-2-(4-(2-(dimethylamino)ethyl)piperazine-1-yl)-4-methoxyphenyl) acrylamide]"
5,B (50 nM ≤ GI50 < 500 nM),"C=CC(=O)Nc1cc(Nc2cc(N3OCC[C@@H]3c3cccc(C(F)(F)F)c3)ncn2)c(OC)cc1N1CC[C@H](N2CCOCC2)C1 [compound 507, N-(4-methoxy-2-((S)-3-morpholinopyrolidine-1-yl)-5-((6-((R)-3-(3-(trifluoromethyl)phenyl)isoxazolidine-2-yl)pyrimidine-4-yl)amino)phenyl)acrylamide]"
6,B (50 nM ≤ GI50 < 500 nM),"C=CC(=O)Nc1cc(Nc2cc(N3OCC[C@@H]3c3cc(F)cc(F)c3)ncn2)cc(N2CCN(C)CC2)c1 [compound 633, N-(3-((6-((R)-3-(3,5-difluorophenyl)isoxazolidine-2-yl)pyrimidine-4-yl)amino)-5-(4-methylpiperazine-1-yl)phenyl)acrylamide]"
7,A (GI50 < 50 nM),"C=CC(=O)Nc1cc(Nc2cc(N3OCC[C@@H]3c3cc(F)ccc3F)ncn2)c(OC)cc1N1CCC(N2C[C@@H]3C[C@H]2CO3)CC1 [compound 826, N-(2-(4-((1S,4S)-2-oxa-5-azabicyclo [2.2.1]heptane-5-yl)piperidine-1-yl)-5-((6-((R)-3-(2,5-difluorophenyl)isoxazolidine-2-yl)pyrimidine-4-yl)amino)-4-methoxyphenyl) acrylamide]"
8,A (GI50 < 50 nM),"C=CCN1CCN(C2CCN(c3cc(OC)c(Nc4cc(N5OCC[C@@H]5Cc5cccc(Cl)c5Cl)ncn4)cc3NC(=O)C=C)CC2)CC1 [compound 1024, N-(2-(4-(4-allylpiperazine-1-yl)piperidine-1-yl)-5-((6-((S)-3-(2,3-dichlorobenzyl)isoxazolidine-2-yl)pyrimidine-4-yl)amino)-4-methoxyphenyl) acrylamide]"
9,A (GI50 < 50 nM),"C=CC(=O)Nc1cc(Nc2cc(N3OCC[C@@H]3c3cccc(Cl)c3F)ncn2)c(OC)cc1N1CCN(C)CC1 [compound 789, N-(5-((6-((R)-3-(3-chloro-2-fluorophenyl)isoxazolidine-2-yl)pyrimidine-4-yl)amino)-4-methoxy-2-(4-methylpiperazine-1-yl)phenyl)acrylamide]"
